In publication PMC12349723, “Computationally accelerated identification of P-glycoprotein inhibitors” (PLOS One, 2025):
Values joined by “and” are separate entries in the source; they are usually repeats but may differ in a detail not shown here. Equal entries are not always repeated. Where two headings read alike, the source gives them in different places.

What was measured:
Type in all cases: cell-based, human
DU145-TXR cells = assay: MTT viability assay, reversal of MDR (re-sensitization to paclitaxel) in P-gp overexpressing DU145-TXR cells; conditions: for % Survival, mean / % Survival: 15 µM compound + 500 nM PTX (Paclitaxel, Taxol); for % Survival, mean / % Survival / viability at 15 µM: DU145-TXR; for Re-sensitization of DU145-TXR cells to PTX (reversal of MDR): 15 µM compound with or without 500 nM PTX, 48 h, MTT, re-sensitization = 30% or greater decrease in cell viability; for viability at 15 µM: Homo sapiens, 15 µM Compound Alone
Method in brief: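 MTT viability testing was done on P-gp overexpressing, multidrug resistant DU145-TXR human prostate cancer cells. They were kept in 10 nM paclitaxel and seeded at 3,000 cells per well in complete RPMI. Cells were exposed to compound, with or without paclitaxel, for 48 hours. MTT was then added for 4 hours, formazan was dissolved in DMSO, and absorbance was read at 570 nm. Survival was expressed relative to control-treated cells.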

A2780-ADR cells = assay: MTT viability assay, reversal of MDR in P-gp overexpressing A2780-ADR cells; conditions: for Reversal of MDR in A2780-ADR cells: 15 µM compound with or without 500 nM PTX, 48 h, MTT; for Mean % Survival / % Survival (individual sample) / viability at 15 µM: A2780-ADR cells; for Mean % Survival / viability at 15 µM: mean of 12 samples; for % Survival (individual sample): single samples (trials 1-3, samples 1-4); for viability at 15 µM: Homo sapiens, A2780 ADR, read-out: Mean % Survival
Experimental: (§1) The chemotherapeutic sensitive DU145 human prostate cancer cells and the multidrug resistant sub-line, DU145-TXR, were generous gifts from Dr. Evan Keller (University of Michigan, Ann Arbor, MI). The MDR, P-gp overexpressing DU145-TXR cells were maintained under positive selection pressure by supplementing complete medium with 10 nM paclitaxel (Acros Organics, NJ). In addition to the aforementioned cell lines, the chemotherapeutic sensitive A2780 ovarian cancer cells (93112519, Sigma) and the multidrug resistant A2780-ADR (93112520, Sigma) were maintained in complete RPMI media consisting of RPMI-1640 with L-glutamine, 10% fetal bovine serum (FBS; Corning), 100 U/mL penicillin and 100 μg/mL streptomycin in a humidified incubator at 37 °C and 5% CO2. The MDR, P-gp overexpressing A2780-ADR cell line was maintained under positive selection pressure by supplementing complete medium with 100 nM doxorubicin (Fisher Scientific, NJ). The non-cancerous HFL1 (human lung fibroblast) cell line cell line was a generous gift from Dr. Robert Harrod (Southern Methodist University, Dallas, TX) and was maintained in complete F12K media consisting of F12K with 10% fetal bovine serum, 100 U/mL penicillin, and 100 µg/mL streptomycin (Gibco). Flasks and 96 well plates that were used with the non-cancerous line HFL1 were pre-treated with 0.1 mg/ml Collagen Type 1 (Gibco) and rinsed with PBS (Fisher).
(§2) Culture of the DU145, DU145-TXR, and HFL1 cell lines was performed as described in [8]. Culture of the A2780 and A2780-ADR cell lines was performed as described in [9]. MTT assays were performed as described in [8] with minor modifications. LC-MS/MS accumulation assays were performed as described in {Nanayakkara, 2018 #173} [9] with some modifications. […] The inhibitor concentration was lowered to 15 µM here, as the goal of the study was to identify compounds that were effective in reversing MDR at low concentrations, and to determine if the expanded virtual-assisted methods improved on our first-draft attempt. Compounds 56–98 were pre-screened using Resazurin cell viability assays: cells were incubated with 15 µM compound with or without 500 nM PTX for 48 hours, after which cell survival was assessed similar to [39]. Data represent the mean of two separate experiments, with n = 3 samples per experiment (n = 6 total) (S4 Table). The top performing compounds from this initial screen were re-tested with MTT viability assays against DU145-TXR cells, as described below.
(§3) MTT assays measure the reduction of yellow, water soluble 3-(4,5-dimethylthiazol-2-yl)-2,5-diphenyltetrazolium bromide (MTT) to blue, insoluble formazan crystals by cellular reductase processes in living cells. Cells were trypsinized from monolayers and seeded in complete medium in 96 well plates. Cancerous cell lines (DU145, DU145-TXR, A2780, A2780-ADR) were seeded at 3,000 cells per well in complete RPMI medium. The non-cancerous HFL1 line was seeded at 4,000 cells per well in complete F12K medium, in collagen-treated plates (Collagen Type 1, Gibco). Cells were incubated with experimental compounds for 48 hours at 37 °C and 5% CO2 in a humidified incubator. At 48 hours, MTT was added (20 µL/well of 5 mg/mL MTT in PBS) to each well. After incubation for 4 hours, the media was removed, and the formazan crystals were dissolved in 100 µL DMSO per well. Plates containing the semi-adherent A2780 or A2780-ADR lines were spun at 1400 rpm for 3 minutes prior to aspiration of media, and the addition of DMSO. Plates were shaken for 10 minutes at 500 rpm on an Orbital shaker (LabDoctor from MidSci, St Louis, MO). The absorbance was measured at 570 nm using a Bio-Tek Cytation 5 (Bio-Tek, Winooski, VT). The measured absorbance value was correlated with the number of metabolically active cells in that well, corrected for absorbance of media. […]

A2780 cells = assay: MTT viability assay, parental A2780 cells, with or without PTX; conditions: for Increase of PTX toxicity against parental A2780 cells: 15 µM compound with or without 500 nM PTX, 48 h, MTT; for Mean % Survival / % Survival (individual sample): A2780 cells; for Mean % Survival / viability at 15 µM: mean of 8 or 12 samples; for % Survival (individual sample): single samples; for viability at 15 µM: Homo sapiens, A2780, A2780 cells, read-out: Mean % Survival
Experimental: as §1, §2, §3

[1] = mean of 8 samples, read-out: % Survival, mean
[2] = trial 1, sample 1, read-out: % Survival
[3] = trial 1, sample 2, read-out: % Survival
[4] = trial 1, sample 3, read-out: % Survival
[5] = trial 1, sample 4, read-out: % Survival
[6] = trial 2, sample 1, read-out: % Survival
[7] = trial 2, sample 2, read-out: % Survival
[8] = trial 2, sample 3, read-out: % Survival
[9] = trial 2, sample 4, read-out: % Survival

SMILES | % Survival, mean (DU145-TXR cells; mean of 8 samples) [%] | % Survival (DU145-TXR cells; trial 1, sample 1) [%] | % Survival (DU145-TXR cells; trial 1, sample 2) [%] | % Survival (DU145-TXR cells; trial 1, sample 3) [%] | % Survival (DU145-TXR cells; trial 1, sample 4) [%] | % Survival (DU145-TXR cells; trial 2, sample 1) [%] | % Survival (DU145-TXR cells; trial 2, sample 2) [%] | % Survival (DU145-TXR cells; trial 2, sample 3) [%] | % Survival (DU145-TXR cells; trial 2, sample 4) [%] | Re-sensitization of DU145-TXR cells to PTX (reversal of MDR) (DU145-TXR cells) | viability at 15 µM (DU145-TXR cells; [1]) [%] | viability at 15 µM (DU145-TXR cells; [2]) [%] | viability at 15 µM (DU145-TXR cells; [3]) [%] | viability at 15 µM (DU145-TXR cells; [4]) [%] | viability at 15 µM (DU145-TXR cells; [5]) [%] | viability at 15 µM (DU145-TXR cells; [6]) [%] | viability at 15 µM (DU145-TXR cells; [7]) [%] | viability at 15 µM (DU145-TXR cells; [8]) [%] | viability at 15 µM (DU145-TXR cells; [9]) [%] | Reversal of MDR in A2780-ADR cells (A2780-ADR cells) | further results
O=C(c1nc(-c2ccccn2)no1)N1CCN(c2nsc3ccccc23)CC1 [Compound 124, O=C(N1CCN(CC1)c1nsc2ccccc12)c1nc(no1)-c1ccccn1] | 75.6 | 62 | 72 | 95 | 73 | 91 | 86 | 67 | 58 | re-sensitized DU145-TXR cells to PTX | 98.6 | 96 | 102 | 79 | 95 | 114 | 94 | 103 | 106 | reversed MDR in A2780-ADR cells | Mean % Survival (A2780-ADR cells; 15 µM compound + 500 nM PTX): 52.5%; % Survival (individual sample) (A2780-ADR cells; 15 µM compound + 500 nM PTX): 58%; % Survival (individual sample) (A2780-ADR cells; 15 µM compound alone): 94% and 91%; viability at 15 µM (A2780-ADR cells; 15 µM compound alone): 92.5%; Increase of PTX toxicity against parental A2780 cells (A2780 cells): did not greatly increase the toxicity of PTX against the parental A2780 cells; Mean % Survival (A2780 cells; 15 µM compound + 500 nM PTX): 14.5%; % Survival (individual sample) (A2780 cells; 15 µM compound + 500 nM PTX): 10%; % Survival (individual sample) (A2780 cells; 15 µM compound alone): 86%; viability at 15 µM (A2780 cells; 15 µM compound alone): 89.5%
Cc1onc(-c2ccccc2)c1-c1nnc(Cn2cnc3ccccc3c2=O)o1 [Compound 111, Cc1onc(c1-c1nnc(Cn2cnc3ccccc3c2=O)o1)-c1ccccc1] | 41.1 | 30 | 34 | 44 | 39 | 51 | 48 | 46 | 38 | re-sensitized DU145-TXR cells to PTX | 102 | 111 | 93 | 90 | 94 | 106 | 115 | 108 | 103 | reversed MDR in A2780-ADR cells | Mean % Survival (A2780-ADR cells; 15 µM compound + 500 nM PTX): 47.6%; % Survival (individual sample) (A2780-ADR cells; 15 µM compound + 500 nM PTX): 52% and 38%; % Survival (individual sample) (A2780-ADR cells; 15 µM compound alone): 95% and 98%; viability at 15 µM (A2780-ADR cells; 15 µM compound alone): 97.3%; Increase of PTX toxicity against parental A2780 cells (A2780 cells): did not greatly increase the toxicity of PTX against the parental A2780 cells; Mean % Survival (A2780 cells; 15 µM compound + 500 nM PTX): 14.4%; % Survival (individual sample) (A2780 cells; 15 µM compound + 500 nM PTX): 13%; % Survival (individual sample) (A2780 cells; 15 µM compound alone): 102%; viability at 15 µM (A2780 cells; 15 µM compound alone): 94%
O=C(NCc1cccc(F)c1)c1nnn2c1Sc1c(C(=O)NCc3cccc(F)c3)nnn1CC2 [Compound 122, Fc1cccc(CNC(=O)c2nnn3CCn4nnc(C(=O)NCc5cccc(F)c5)c4Sc23)c1] | 60.4 | 61 | 55 | 61 | 62 | 65 | 63 | 54 | 61 | re-sensitized DU145-TXR cells to PTX | 106 | 102 | 105 | 85 | 102 | 123 | 107 | 106 | 114 | reversed MDR in A2780-ADR cells | Mean % Survival (A2780-ADR cells; 15 µM compound + 500 nM PTX): 45.8%; % Survival (individual sample) (A2780-ADR cells; 15 µM compound + 500 nM PTX): 50% and 51% and 45%; % Survival (individual sample) (A2780-ADR cells; 15 µM compound alone): 104% and 83%; viability at 15 µM (A2780-ADR cells; 15 µM compound alone): 89.7%; Increase of PTX toxicity against parental A2780 cells (A2780 cells): did not greatly increase the toxicity of PTX against the parental A2780 cells; Mean % Survival (A2780 cells; 15 µM compound + 500 nM PTX): 13.6%; % Survival (individual sample) (A2780 cells; 15 µM compound + 500 nM PTX): 12% and 14%; viability at 15 µM (A2780 cells; 15 µM compound alone): 76.5%
